In patent US11491169B2, “Remdesivir treatment methods” (Gilead Sciences, Inc., priority 2020, dated 2022):
Like-named read-outs stand apart in the source and are kept apart here.

Columns and labels:
A549-hACE2 cells [1] = conditions: for Mean RDV-TP: human, 1 μM
SARS-CoV-2 = SARS-CoV-2 Nluc antiviral assay in A549-hACE2 cells; format: cell-based; conditions: for Nluc signal (SARS-CoV-2 replication): 10 μM of CQ or HCQ alone
HEp-2 cells [2] = tested on: HEp-2 cells
[3] = doses recommended under the former EUA guidance for COVID-19; cited from earlier work
HEp-2 cells [4] = assay: Formula Ia triphosphate (RDV-TP) formation in HEp-2 cells, LC-MS/MS; conditions: 2 h
[5] = tested on: respiratory syncytial virus (RSV); assay: microbe, parasite or virus in culture; format: cell-based; conditions: human respiratory syncytial virus, HEp-2, read-out: Formula Ia RSV EC50, HEp2 cells
Description: The cells were then infected with RSV A2 virus diluted in DMEM medium+GlutaMAX at an MOI=4 and incubated for 4 days at 37° C. and 5% CO2. The final volume in each well was 200 μL. Uninfected and untreated wells were included as controls for 100% cell viability. Following the incubation, 100 μL of culture supernatant was removed from each well and replaced with 100 μL of CellTiter-Glo reagent (Promega). The plates were then rocked for 2 minutes followed by a 10-minute incubation at 25° C. Cell viability was then assessed by measuring luminescence signal using and Envision plate reader. Values were normalized to the uninfected and infected DMSO controls (as 100% and 0% […], respectively) and data was fit using non-linear regression analysis with the XLfit software.

A549-hACE2 cells [6] = conditions: Formula Ia and HCQ combination concentrations analyzed (data not shown)
[7] = Severe acute respiratory syndrome coronavirus 2, read-out: SARS-CoV-2 Nluc EC50, A549-hACE2 cells, single agent + DMSO

CCN(CC)CCCC(C)Nc1ccnc2cc(Cl)ccc12 (centres unmarked) [CQ, N′-(7-chloroquinolin-4-yl)-N,N-diethyl-pentane-1,4-diamine, reference compound]
Effect on Formula Ia-TP levels (NHBE cultures): not statistically significant
Effect on Formula Ia-TP levels (A549-hACE2 cells [1]): did not significantly reduce
Effect on production of Formula Ia-TP (A549-hACE2 cells [1]): did significantly lower
Nluc signal (SARS-CoV-2 replication) (SARS-CoV-2; A549-hACE2 cells): fully suppressed
EC50 (SARS-CoV-2; [7]): ~451 nM
Effect on formation of intracellular Formula Ia-TP (HEp-2 cells [2]): dose-dependent reduction
Average systemic exposures [3]: 610 to 760 nM

CCC(CC)COC(=O)[C@H](C)N[P@](=O)(OC[C@H]1O[C@@](C#N)(c2ccc3c(N)ncnn23)[C@H](O)[C@@H]1O)Oc1ccccc1 [Formula Ia, (S)-2-ethylbutyl 2-(((S)-(((2R,3S,4R,5R)-5-(4-aminopyn-olo[2,1-f][1,2,4]triazin-7-yl)-5-cyano-3,4-dihydroxytetrahydrofuran-2-yl)methoxy)(phenoxy)phosphoryl)amino)propanoate]
Mean RDV-TP (A549-hACE2 cells [1]; 2 h): 3.6 ± 0.2 pmol/million cells
Mean RDV-TP (A549-hACE2 cells [1]; 24 h): 6.8 ± 1.3 pmol/million cells
Mean RDV-TP (A549-hACE2 cells [1]; 48 h): 3.0 ± 0.5 pmol/million cells
Mean RDV-TP (HEp-2 cells [4]; 1 μM Formula Ia + 1 μM CQ): BLQ
Mean RDV-TP (HEp-2 cells [4]; 1 μM Formula Ia + 1 μM HCQ): BLQ
Mean RDV-TP (HEp-2 cells [4]; 1 μM Formula Ia + 10 μM CQ): BLQ
Mean RDV-TP (HEp-2 cells [4]; 1 μM Formula Ia + 10 μM HCQ): BLQ
Mean RDV-TP (HEp-2 cells [4]; 1 μM Formula Ia alone): BLQ
EC50 (SARS-CoV-2; read-out: SARS-CoV-2 Nluc EC50, A549-hACE2 cells, + 10 nm HCQ): 63.6 nM
EC50 (SARS-CoV-2; read-out: SARS-CoV-2 Nluc EC50, A549-hACE2 cells, + 40 nm HCQ): 50.7 nM
EC50 (SARS-CoV-2; read-out: SARS-CoV-2 Nluc EC50, A549-hACE2 cells, + 640 nm CQ): 46 nM
EC50 (SARS-CoV-2; read-out: SARS-CoV-2 Nluc EC50, A549-hACE2 cells, + 2500 nm HCQ): 63 nM
EC50 ([5]; chloroquine 0 nM): 49.5 ± 13.1 nM
EC50 ([5]; chloroquine 10 nM): 58.4 ± 12.8 nM
EC50 ([5]; chloroquine 40 nM): 72.1 ± 24.8 nM
EC50 ([5]; chloroquine 160 nM): 99.6 ± 30.3 nM
EC50 ([5]; chloroquine 640 nM): 138 ± 33.8 nM
EC50 ([5]; chloroquine 2560 nM): 209 ± 18.2 nM

CCN(CCO)CCCC(C)Nc1ccnc2cc(Cl)ccc12 (centres unmarked) [HCQ, 2-[{4-[(7-chloroquinolin-4-yl)amino]pentyl}(ethyl)amino]ethanol, reference compound]
Cytotoxicity (A549-hACE2 cells [6]): not observed
Nluc signal (SARS-CoV-2 replication) (SARS-CoV-2; A549-hACE2 cells): fully suppressed
EC50 (SARS-CoV-2; [7]): ~365 nM
Average systemic exposures [3]: approximately 1.7 μM
